The text below walks through data of ChEMBL document CHEMBL1201861, “Genomics of Drug Sensitity in Cancer screening data, Wellcome Trust Sanger Institute”.

Holding throughout (test): cells
One assay relates to D-336MG. It counts as functional, cell-based. To be noted: Homo sapiens.
In the next assay the test system is HCC1599. It counts as functional, cell-based. To be noted: Homo sapiens.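 Note: growth inhibition of HCC1599 cells, read out in a cell viability assay.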
In the next assay the test system is IST-SL2. Type of assay: functional, cell-based. To be noted: Homo sapiens.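 Note: growth inhibition of human IST-SL2 cells, read out by a cell viability assay.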
A further assay concerns LB647-SCLC. Type of assay: functional, cell-based. As to conditions: Homo sapiens.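 Note: cell growth inhibition, read out by a viability assay.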
A further assay deals with LU-165. Type of assay: functional, cell-based. To be noted: Homo sapiens.
Another assay has as its system MC-CAR. Type of assay: functional, cell-based. To be noted: Homo sapiens.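 Note: growth inhibition of the human MC-CAR cell line, read out by a cell viability assay.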
The test system of a further assay is MOLT-13. It counts as functional, cell-based. To be noted: Homo sapiens.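 Note: IC50 for suppression of MOLT-13 cell growth, read out with a cell viability assay.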
For another assay, the system named is MONO-MAC-6. Type of assay: functional, cell-based. As to conditions: Homo sapiens.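 Note: cell viability assay measuring growth inhibition of human MONO-MAC-6 cells.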
The test system of the next assay is NB14. Type of assay: functional, cell-based. To be noted: Homo sapiens.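 Note: growth inhibition of NB14 cells measured with a cell viability assay.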
For the next assay, the system named is NCI-H2171. It counts as functional, cell-based. As to conditions: Homo sapiens.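 Note: growth inhibition of human NCI-H2171 cells, read out by a cell viability assay.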
The test system of the next assay is NCI-H322M. Type of assay: functional, cell-based. As to conditions: Homo sapiens.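 Note: cell viability assay measuring inhibition of growth of human NCI-H322M cells.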
In the next assay the test system is NCI-H345. It counts as functional, cell-based. As to conditions: Homo sapiens.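 Note: growth inhibition of NCI-H345 cells measured with a cell viability assay.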
Another assay concerns CAL-148. It counts as functional, cell-based. As to conditions: Homo sapiens.
A further assay has as its system YT. Type of assay: functional, cell-based. To be noted: Homo sapiens.
A further assay deals with NB12. Type of assay: functional, cell-based. As to conditions: Homo sapiens.
The subject of the next assay is COLO-741. It counts as functional, cell-based. As to conditions: Homo sapiens.
A further assay has as its system COR-L105. Type of assay: functional, cell-based. To be noted: Homo sapiens.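 Note: cell growth inhibition determined with a viability assay.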
Another assay deals with Ca9-22. It counts as functional, cell-based. As to conditions: Homo sapiens.
The test system of another assay is Capan-2. Type of assay: functional, cell-based. As to conditions: Homo sapiens.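 Note: Capan-2 cell growth inhibition, read out with a viability assay.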
The test system of the next assay is ChaGo-K-1. Type of assay: functional, cell-based. To be noted: Homo sapiens.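 Note: growth inhibition of ChaGo-K-1 cells, read out with a cell viability assay.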
Another assay concerns DBTRG-05MG. Type of assay: functional, cell-based. As to conditions: Homo sapiens.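 Note: cell viability assay measuring growth inhibition of human DBTRG-05MG cells.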
The next assay has as its system FaDu. It counts as functional, cell-based. As to conditions: Homo sapiens.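 Note: cell viability readout of growth inhibition in FaDu cells.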
A further assay concerns FTC-133. Type of assay: functional, cell-based. To be noted: Homo sapiens.
Another assay has as its system GAMG. It counts as functional, cell-based. As to conditions: Homo sapiens.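 Note: cell growth inhibition measured by a viability assay in the GAMG human cell line.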
Another assay has as its system GCT. Type of assay: functional, cell-based. As to conditions: Homo sapiens.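 Note: GCT cell line proliferation inhibition, read out with a cell viability assay.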
The subject of another assay is HCC1395. Type of assay: functional, cell-based. To be noted: Homo sapiens.
The test system of another assay is HCC1806. It counts as functional, cell-based. As to conditions: Homo sapiens.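 Note: growth inhibition of the cancer cell line, determined with a cell viability assay.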
The subject of another assay is HCC1937. Type of assay: functional, cell-based. As to conditions: Homo sapiens.
The next assay relates to HGC-27. Type of assay: functional, cell-based. As to conditions: Homo sapiens.
The subject of the next assay is HT-1080. Type of assay: functional, cell-based. To be noted: Homo sapiens.
A further assay relates to HT1197. Type of assay: functional, cell-based, HT-1197. To be noted: Homo sapiens.
The test system of the next assay is Hs-578T. It counts as functional, cell-based. To be noted: Homo sapiens.
In a further assay the test system is KYSE-180. It counts as functional, cell-based. To be noted: Homo sapiens.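 Note: growth inhibition of KYSE-180 cells, read out with a cell viability assay.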
The next assay concerns KYSE-70 cell line. It counts as functional, cell-based. To be noted: Homo sapiens.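 Note: cell viability assay read-out, with IC50 expressing suppression of KYSE-70 cell growth.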
A further assay deals with LCLC-103H cell line. Type of assay: functional, cell-based. To be noted: Homo sapiens.
A further assay concerns LCLC-97TM1. It counts as functional, cell-based. As to conditions: Homo sapiens.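 Note: cell viability assay measuring growth inhibition of human LCLC-97TM1 cells.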
The next assay has as its system LoVo. Type of assay: functional, cell-based. To be noted: Homo sapiens.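 Note: growth inhibition of human LoVo cells, read out with a cell viability assay.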
In the next assay the test system is MDA-MB-157. Type of assay: functional, cell-based. As to conditions: Homo sapiens.
The next assay relates to MHH-ES-1. It counts as functional, cell-based. To be noted: Homo sapiens.
The next assay concerns MKN-45. Type of assay: functional, cell-based. To be noted: Homo sapiens.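 Note: growth inhibition of human MKN-45 cells, measured with a cell viability assay.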
For the next assay, the system named is MKN-7. It counts as functional, cell-based. To be noted: Homo sapiens.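 Note: growth inhibition of MKN-7 cells, read out with a cell viability assay.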
For another assay, the system named is MeWo. It counts as functional, cell-based. As to conditions: Homo sapiens.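 Note: growth inhibition of MeWo cells, determined by a cell viability readout.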
The subject of a further assay is NCI-H1563. It counts as functional, cell-based. As to conditions: Homo sapiens.
The test system of another assay is NCI-H1573. Type of assay: functional, cell-based. To be noted: Homo sapiens.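 Note: growth inhibition of NCI-H1573 cells, read out with a cell viability assay.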
A further assay has as its system NCI-H2228. Type of assay: functional, cell-based. To be noted: Homo sapiens.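 Note: growth inhibition of human NCI-H2228 cells, read out by a cell viability assay.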
For another assay, the system named is NCI-H520. Type of assay: functional, cell-based. To be noted: Homo sapiens.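 Note: growth inhibition of NCI-H520 cells, measured by a cell viability assay.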
In another assay the test system is NY. Type of assay: functional, cell-based. To be noted: Homo sapiens.
For another assay, the system named is OE19. Type of assay: functional, cell-based. To be noted: Homo sapiens.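 Note: growth inhibition of OE19 cells, measured through a cell viability read-out.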
A further assay relates to OE33. It counts as functional, cell-based. As to conditions: Homo sapiens.
In the next assay the test system is PANC-08-13. Type of assay: functional, cell-based. To be noted: Homo sapiens.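 Note: cell growth inhibition, measured with a cell viability assay.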
For a further assay, the system named is Panc1005. Type of assay: functional, cell-based. As to conditions: Homo sapiens.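 Note: growth inhibition of human PANC-10-05 cells, measured by a cell viability assay.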
The next assay concerns RO82-W-1. It counts as functional, cell-based. As to conditions: Homo sapiens.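 Note: growth inhibition of human RO82-W-1 cells, measured with a cell viability assay.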
A further assay concerns SCC-25. Type of assay: functional, cell-based. As to conditions: Homo sapiens.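 Note: growth inhibition of SCC-25 cells, measured with a cell viability assay.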
The next assay concerns SK-MES-1. Type of assay: functional, cell-based. As to conditions: Homo sapiens.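 Note: growth inhibition of human SK-MES-1 cells, read out with a cell viability assay.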
In another assay the test system is SW1783. It counts as functional, cell-based. As to conditions: Homo sapiens.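 Note: cell growth inhibition measured with a viability assay.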
Another assay deals with T-24. Type of assay: functional, cell-based. To be noted: Homo sapiens.
Another assay relates to CWR22R. It counts as functional, cell-based. As to conditions: Homo sapiens, 22Rv1.
In another assay the test system is A204. It counts as functional, cell-based. As to conditions: Homo sapiens.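 Note: growth inhibition of human A204 cells, read out with a cell viability assay.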
Another assay relates to ABC-1. It counts as functional, cell-based. As to conditions: Homo sapiens.
The next assay deals with BFTC-905. Type of assay: functional, cell-based. As to conditions: Homo sapiens.
The test system of the next assay is BPH-1. It counts as functional, cell-based. To be noted: Homo sapiens.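 Note: cell viability assay measuring growth inhibition of human BPH-1 cells.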
The subject of the next assay is CAL-27. Type of assay: functional, cell-based. As to conditions: Homo sapiens.
For the next assay, the system named is UACC-62. Type of assay: functional, cell-based. To be noted: Homo sapiens.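 Note: growth inhibition of human UACC-62 cells, read out by a cell viability assay.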
In the next assay the test system is UMUC3. Type of assay: functional, cell-based. To be noted: Homo sapiens.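 Note: growth inhibition of human UM-UC-3 cells, read out with a cell viability assay.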
In another assay the test system is UMC-11. It counts as functional, cell-based. As to conditions: Homo sapiens.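 Note: growth inhibition of UMC-11 cells, read out with a cell viability assay.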

Bounds are passed on as bounds.

Description for A204: SANGER: Inhibition of human A204 cell growth in a cell viability assay.
Description for ABC-1: SANGER: Inhibition of human ABC-1 cell growth in a cell viability assay.
Description for BFTC-905: SANGER: Inhibition of human BFTC-905 cell growth in a cell viability assay.
Description for BPH-1: SANGER: Inhibition of human BPH-1 cell growth in a cell viability assay.
Description for CAL-148: SANGER: Inhibition of human CAL-148 cell growth in a cell viability assay.
Description for CAL-27: SANGER: Inhibition of human CAL-27 cell growth in a cell viability assay.
Description for COLO-741: SANGER: Inhibition of human COLO-741 cell growth in a cell viability assay.
Description for COR-L105: SANGER: Inhibition of human COR-L105 cell growth in a cell viability assay.
Description for CWR22R: SANGER: Inhibition of human 22RV1 cell growth in a cell viability assay.
Description for Ca9-22: SANGER: Inhibition of human Ca9-22 cell growth in a cell viability assay.
Description for Capan-2: SANGER: Inhibition of human Capan-2 cell growth in a cell viability assay.
Description for ChaGo-K-1: SANGER: Inhibition of human ChaGo-K-1 cell growth in a cell viability assay.
Description for D-336MG: SANGER: Inhibition of human D-336MG cell growth in a cell viability assay.
Description for DBTRG-05MG: SANGER: Inhibition of human DBTRG-05MG cell growth in a cell viability assay.
Description for FaDu: SANGER: Inhibition of human FADU cell growth in a cell viability assay.
Description for GAMG: SANGER: Inhibition of human GAMG cell growth in a cell viability assay.
Description for GCT: SANGER: Inhibition of human GCT cell growth in a cell viability assay.
Description for HCC1395: SANGER: Inhibition of human HCC1395 cell growth in a cell viability assay.
Description for HCC1599: SANGER: Inhibition of human HCC1599 cell growth in a cell viability assay.
Description for HCC1806: SANGER: Inhibition of human HCC1806 cell growth in a cell viability assay.
Description for HCC1937: SANGER: Inhibition of human HCC1937 cell growth in a cell viability assay.
Description for HGC-27: SANGER: Inhibition of human HGC-27 cell growth in a cell viability assay.
Description for HT-1080: SANGER: Inhibition of human HT-1080 cell growth in a cell viability assay.
Description for HT1197: SANGER: Inhibition of human HT-1197 cell growth in a cell viability assay.
Description for Hs-578T: SANGER: Inhibition of human Hs-578-T cell growth in a cell viability assay.
Description for IST-SL2: SANGER: Inhibition of human IST-SL2 cell growth in a cell viability assay.
Description for KYSE-180: SANGER: Inhibition of human KYSE-180 cell growth in a cell viability assay.
Description for KYSE-70 cell line: SANGER: Inhibition of human KYSE-70 cell growth in a cell viability assay.
Description for LB647-SCLC: SANGER: Inhibition of human LB647-SCLC cell growth in a cell viability assay.
Description for LCLC-103H cell line: SANGER: Inhibition of human LCLC-103H cell growth in a cell viability assay.
Description for LCLC-97TM1: SANGER: Inhibition of human LCLC-97TM1 cell growth in a cell viability assay.
Description for LU-165: SANGER: Inhibition of human LU-165 cell growth in a cell viability assay.
Description for LoVo: SANGER: Inhibition of human LoVo cell growth in a cell viability assay.
Description for MC-CAR: SANGER: Inhibition of human MC-CAR cell growth in a cell viability assay.
Description for MDA-MB-157: SANGER: Inhibition of human MDA-MB-157 cell growth in a cell viability assay.
Description for MHH-ES-1: SANGER: Inhibition of human MHH-ES-1 cell growth in a cell viability assay.
Description for MKN-45: SANGER: Inhibition of human MKN45 cell growth in a cell viability assay.
Description for MKN-7: SANGER: Inhibition of human MKN7 cell growth in a cell viability assay.
Description for MOLT-13: SANGER: Inhibition of human MOLT-13 cell growth in a cell viability assay.
Description for MONO-MAC-6: SANGER: Inhibition of human MONO-MAC-6 cell growth in a cell viability assay.
Description for MeWo: SANGER: Inhibition of human Mewo cell growth in a cell viability assay.
Description for NB12: SANGER: Inhibition of human NB12 cell growth in a cell viability assay.
Description for NB14: SANGER: Inhibition of human NB14 cell growth in a cell viability assay.
Description for NCI-H1563: SANGER: Inhibition of human NCI-H1563 cell growth in a cell viability assay.
Description for NCI-H1573: SANGER: Inhibition of human NCI-H1573 cell growth in a cell viability assay.
Description for NCI-H2171: SANGER: Inhibition of human NCI-H2171 cell growth in a cell viability assay.
Description for NCI-H2228: SANGER: Inhibition of human NCI-H2228 cell growth in a cell viability assay.
Description for NCI-H322M: SANGER: Inhibition of human NCI-H322M cell growth in a cell viability assay.
Description for NCI-H345: SANGER: Inhibition of human NCI-H345 cell growth in a cell viability assay.
Description for NCI-H520: SANGER: Inhibition of human NCI-H520 cell growth in a cell viability assay.
Description for NY: SANGER: Inhibition of human NY cell growth in a cell viability assay.
Description for OE19: SANGER: Inhibition of human OE19 cell growth in a cell viability assay.
Description for OE33: SANGER: Inhibition of human OE33 cell growth in a cell viability assay.
Description for PANC-08-13: SANGER: Inhibition of human PANC-08-13 cell growth in a cell viability assay.
Description for Panc1005: SANGER: Inhibition of human PANC-10-05 cell growth in a cell viability assay.
Description for RO82-W-1: SANGER: Inhibition of human RO82-W-1 cell growth in a cell viability assay.
Description for SCC-25: SANGER: Inhibition of human SCC-25 cell growth in a cell viability assay.
Description for SK-MES-1: SANGER: Inhibition of human SK-MES-1 cell growth in a cell viability assay.
Description for SW1783: SANGER: Inhibition of human SW1783 cell growth in a cell viability assay.
Description for T-24: SANGER: Inhibition of human T-24 cell growth in a cell viability assay.
Description for UACC-62: SANGER: Inhibition of human UACC-62 cell growth in a cell viability assay.
Description for UMC-11: SANGER: Inhibition of human UMC-11 cell growth in a cell viability assay.
Description for UMUC3: SANGER: Inhibition of human UM-UC-3 cell growth in a cell viability assay.
Description for YT: SANGER: Inhibition of human YT cell growth in a cell viability assay.

One may read the IC50 as the concentration that inhibits the measured activity by half. The low end stands for inhibition by little substance, the high end for a need for much substance. As for `COc1cc(C)c(Sc2cnc(NC(=O)c3ccc(CNC(C)C(C)(C)C)cc3)s2)cc1C(=O)N1CCN(C(C)=O)CC1` (configuration not stated), the IC50 in the assay on D-336MG is 6780 nM; in the assay with HCC1599, more than 10.2 µM; in the assay with IST-SL2, more than 10.2 µM; in the assay on LB647-SCLC, more than 10.2 µM; in the assay with LU-165, more than 10.2 µM; with MC-CAR, more than 10.2 µM. Besides, the half-maximal inhibitory concentration (IC50) was more than 10200 nM with MOLT-13; 6.67 µM with MONO-MAC-6; more than 10200 nM with NB14; more than 10200 nM in the assay on NCI-H2171; more than 10.2 µM in the assay with NCI-H322M; more than 10.2 µM with NCI-H345. Also, the IC50 in the assay on CAL-148 and in the assay on YT was more than 10.2 µM throughout.
In the case of `Cc1ccc(NC(=O)c2cccc(C(C)(C)C#N)c2)cc1Nc1ccc2ncn(C)c(=O)c2c1`, the half-inhibitory concentration (IC50) is more than 4000 nM with D-336MG; more than 4 µM with HCC1599; more than 4 µM in the assay with IST-SL2; more than 4 µM with LB647-SCLC; more than 4 µM in the assay on LU-165; more than 4 µM with MC-CAR. In addition, the IC50 is more than 4000 nM in the assay with MOLT-13; more than 4 µM with MONO-MAC-6; more than 4000 nM with NB12; 493 nM in the assay on NB14; more than 4000 nM with NCI-H2171; more than 4 µM in the assay with NCI-H322M. Further, the concentration for half-maximal inhibition (IC50) in the assay on NCI-H345, with CAL-148 and in the assay with YT was more than 4 µM throughout.
For `CCn1c(-c2nonc2N)nc2cnc(Oc3cccc(NC(=O)c4ccc(OCCN5CCOCC5)cc4)c3)cc21` [GSK-269962A], the IC50 in the assay on D-336MG is 629 nM; in the assay with HCC1599, more than 2.5 µM; in the assay on IST-SL2, more than 2.5 µM; with LB647-SCLC, more than 2.5 µM; in the assay on LU-165 it was more than 2.5 µM; in the assay on MC-CAR it was more than 2.5 µM. Further, the 50% inhibitory concentration (IC50) with MOLT-13 was more than 2500 nM; with MONO-MAC-6 it was more than 2.5 µM; in the assay on NB12, more than 2500 nM; in the assay on NB14 it was more than 2500 nM; in the assay with NCI-H2171, 959 nM; with NCI-H322M it was more than 2.5 µM. The 50% inhibitory concentration (IC50) in the assay with NCI-H345, in the assay on CAL-148 and in the assay with YT was more than 2.5 µM each time.
As to `Cc1[nH]c(/C=C2\C(=O)Nc3ccc(S(=O)(=O)Cc4c(Cl)cccc4Cl)cc32)c(C)c1C(=O)N1CCC[C@@H]1CN1CCCC1` [PHA-665752], the half-maximal inhibitory concentration (IC50) is more than 2000 nM in the assay on D-336MG; more than 2 µM in the assay on HCC1599; more than 2 µM in the assay on IST-SL2; more than 2 µM in the assay with LB647-SCLC; more than 2 µM with LU-165; more than 2 µM in the assay on MC-CAR. Moreover, the IC50 in the assay with MOLT-13 is more than 2000 nM; in the assay with MONO-MAC-6, more than 2 µM; in the assay on NB14, more than 2000 nM; in the assay on NCI-H2171, more than 2000 nM; in the assay with NCI-H322M, more than 2 µM; in the assay on NCI-H345, more than 2 µM. The IC50 in the assay with CAL-148 and with YT was more than 2 µM each time.
Regarding `CC[C@]1(O)C[C@@H]2CN(CCc3c([nH]c4ccccc34)[C@@](C(=O)OC)(c3cc4c(cc3OC)N(C)[C@H]3[C@@](O)(C(=O)OC)[C@H](OC(C)=O)[C@]5(CC)C=CCN6CC[C@]43[C@@H]65)C2)C1` [VINBLASTINE], the IC50 was 2.14 nM with COLO-741; 65.7 nM in the assay on COR-L105; 6.39 nM in the assay with Ca9-22; more than 100 nM with Capan-2; 1.01 nM with ChaGo-K-1; 7.25 nM with D-336MG. Further, the IC50 with DBTRG-05MG is more than 100 nM; with FaDu, 20 nM; in the assay with FTC-133, 8.44 nM; in the assay with GAMG, 19.4 nM; in the assay on GCT, 4.73 nM; with HCC1395, 29.2 nM. Also, the IC50 in the assay with HCC1806 was 0.63 nM; in the assay with HCC1937, more than 100 nM; in the assay on HGC-27, 1.01 nM; in the assay on HT-1080, 4.23 nM; in the assay with HT1197, 99.8 nM; with Hs-578T it was 17.3 nM. Further, the IC50 in the assay on KYSE-180 was determined as 6.39 nM; with KYSE-70 cell line, 48.4 nM; with LCLC-103H cell line it was 1.5 nM; in the assay on LCLC-97TM1, 5.49 nM; in the assay on LoVo, 6.03 nM; in the assay with MDA-MB-157, 9.06 nM. The concentration for half-maximal inhibition (IC50) came out at 5.13 nM in the assay with MHH-ES-1; 48.4 nM in the assay with MKN-45; 76.7 nM with MKN-7; 5.6 nM with MOLT-13; 9.13 nM in the assay on MeWo; 61.4 nM in the assay on NB12. Besides, the IC50 was 4.95 nM in the assay on NB14; 21.5 nM in the assay with NCI-H1563; 30.7 nM with NCI-H1573; 41.1 nM in the assay on NCI-H2228; 30.1 nM in the assay on NCI-H520; more than 100 nM in the assay with NY. For the same compound, the IC50 in the assay on OE19 was more than 100 nM; with OE33, 28.6 nM; with PANC-08-13, 61.5 nM; in the assay with Panc1005, 42.8 nM; in the assay with RO82-W-1, 5.57 nM; in the assay with SCC-25, 15.7 nM. Moreover, the IC50 stood at 8.64 nM in the assay with SK-MES-1; 85.5 nM in the assay with SW1783; 5.1 nM in the assay with T-24; 9.82 nM in the assay on CWR22R; 8.76 nM in the assay with A204; 15.5 nM in the assay on ABC-1. The IC50 was 3.77 nM in the assay with BFTC-905; 3.26 nM in the assay with BPH-1; 2.09 nM in the assay with CAL-27; 8.06 nM with UACC-62; 5.11 nM with UMUC3; 76.2 nM in the assay on UMC-11.
